Data: ChEMBL document CHEMBL3232796, “Synthesis and carbonic anhydrase I, II, IX and XII inhibition studies of 4-N,N-disubstituted sulfanilamides incorporating 4,4,4-trifluoro-3-oxo-but-1-enyl, phenacylthiourea and imidazol-2(3H)-one/thione moieties” (Bioorg Med Chem Lett, 2014)

Target: Carbonic anhydrase 9 (Homo sapiens, UniProt Q16790)
Description: Inhibition of human recombinant transmembrane tumor associated carbonic anhydrase-9 incubated for 15 mins prior to testing by stopped-flow CO2 hydrase assay

Row | SMILES | Ki [nM]
1 | NS(=O)(=O)c1ccc(N(/C=C/C(=O)C(F)(F)F)CC(=O)c2ccc(Cl)cc2)cc1 | 17
2 | NS(=O)(=O)c1ccc(N(/C=C/C(=O)C(F)(F)F)Cc2ccccc2)cc1 | 39
3 | NS(=O)(=O)c1ccc(N(/C=C/C(=O)C(F)(F)F)Cc2ccc(Cl)cc2)cc1 | 33
4 | NS(=O)(=O)c1ccc(-n2cc(-c3ccccc3)[nH]c2=O)cc1 | 34
5 | NS(=O)(=O)c1ccc(N(/C=C/C(=O)C(F)(F)F)CC(=O)c2ccccc2)cc1 | 9.5
6 | NS(=O)(=O)c1ccc(N(/C=C/C(=O)C(F)(F)F)CC(=O)c2ccc(F)cc2)cc1 | 13
7 | NS(=O)(=O)c1ccc(-n2cc(-c3ccc(F)cc3)[nH]c2=O)cc1 | 25
8 | NS(=O)(=O)c1ccc(-n2cc(-c3ccc(F)cc3)[nH]c2=S)cc1 | 37
9 | CCOC(=O)NC(=S)N(CC(=O)c1ccc(Cl)cc1)c1ccc(S(N)(=O)=O)cc1 | 25
10 | Cc1ccc(C(=O)CN(/C=C/C(=O)C(F)(F)F)c2ccc(S(N)(=O)=O)cc2)cc1 | 18
11 | NS(=O)(=O)c1ccc(-n2cc(-c3ccccc3)[nH]c2=S)cc1 | 13
